Assay results from publication PMC9820345, “Metal Complexes of a 5-Nitro-8-Hydroxyquinoline-Proline Hybrid with Enhanced Water Solubility Targeting Multidrug Resistant Cancer Cells” (International Journal of Molecular Sciences, 2022).

Key:
[1] = biological target: T1, OATP2B1 (Homo sapiens, UniProt O94956); experiment: OATP uptake assay, OATP2B1; assay type: cell-based; conditions: human, 20 μM
T1 construct: expressed in transfected cells; host or cells: A431 epidermoid carcinoma cells
T1 sequence (O94956 1-709): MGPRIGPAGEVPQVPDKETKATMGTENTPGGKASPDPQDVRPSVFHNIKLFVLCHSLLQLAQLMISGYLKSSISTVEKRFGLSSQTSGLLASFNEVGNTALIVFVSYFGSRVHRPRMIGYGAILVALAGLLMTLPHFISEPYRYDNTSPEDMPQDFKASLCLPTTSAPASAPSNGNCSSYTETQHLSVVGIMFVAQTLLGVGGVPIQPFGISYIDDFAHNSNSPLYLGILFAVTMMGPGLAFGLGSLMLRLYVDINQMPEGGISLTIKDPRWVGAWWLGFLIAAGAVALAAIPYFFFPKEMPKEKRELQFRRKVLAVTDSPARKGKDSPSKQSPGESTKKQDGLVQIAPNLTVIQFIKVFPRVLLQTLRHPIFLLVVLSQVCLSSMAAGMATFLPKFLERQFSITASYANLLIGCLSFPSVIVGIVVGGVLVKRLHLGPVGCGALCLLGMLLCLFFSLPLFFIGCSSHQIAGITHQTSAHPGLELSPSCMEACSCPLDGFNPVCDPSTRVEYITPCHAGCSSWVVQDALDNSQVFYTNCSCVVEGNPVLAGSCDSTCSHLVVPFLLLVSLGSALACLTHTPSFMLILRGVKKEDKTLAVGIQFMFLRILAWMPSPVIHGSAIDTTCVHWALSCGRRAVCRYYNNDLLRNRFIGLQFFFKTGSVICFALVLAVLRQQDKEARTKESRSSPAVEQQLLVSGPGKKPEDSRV
Method: Cell lines: A431 cells overexpressing OATP1B1 or OATP2B1, and their mock transfected controls were generated and characterized previously. The cell lines were cultured in DMEM (Gibco, Thermofisher Scientific, Waltham, MA, USA), supplemented with 10% fetal bovine serum, 2 mM L-glutamine, 100 μg/mL streptomycin, and 100 units/mL penicillin at 37 °C and 5% CO2.
OATP uptake assay: Prior to the experiment, A431 cells (8 × 10^4/well) were seeded on 96-well plates in 200 μL cell culture medium. After 16–24 h, the cells were washed with 200 μL PBS, three times and pre-incubated with 20–200 μM HQNO2-L-Pro, or buffer without HQNO2-L-Pro for 5 min at 37 °C in 50 μL HBSS (Hank’s Balanced Salt Solution, pH 7.4; OATP1B1) or uptake buffer (pH 5.5; OATP2B1 [63]). The reaction was started by the addition of disulfopyrene (6,8-dihydroxy-1,3-pyrenedisulfonic acid disodium salt, Sigma, Darmstadt, Germany) at a final concentration of 10 μM (OATP1B1) or pyranine (8-hydroxypyrene-1,3-pyrenetrisulfonic acid trisodium salt, Sigma, Darmstadt, Germany) at a final concentration of 20 μM (OATP2B1), and the cells were further incubated at 37 °C for 10 min (OATP1B1) or 15 min (OATP2B1). The reaction was stopped by removing the supernatant after which the cells were washed three times with ice-cold PBS. Fluorescence (in 200 μL PBS) was determined using an Enspire plate reader (PerkinElmer, Waltham, MA, USA) with excitation/emission wavelengths of 460/510 nm. OATP-dependent transport was calculated by subtracting fluorescence measured in mock transfected cells. Transport activity was calculated based on the fluorescence signal in the absence (100%) of HQNO2-L-Pro. Experiments were repeated in at least three biological replicates.

[2] = test system: tested cancer cell lines (MES-SA, MES-SA/Dx5, Colo205, Colo320); experiment: In vitro cytotoxicity, summary over the tested cancer cell lines; assay type: cell-based; conditions: Homo sapiens, range over MES-SA
Method: The in vitro cytotoxicity of HQNO2-L-Pro and its RuCym and RhCp* complexes was assayed in two chemosensitive and resistant cell pairs to reveal their potential MDR selective toxicity. On the one hand, the parental human uterine sarcoma MES-SA cell line and its P-gp positive MDR derivative MES-SA/Dx5 cell line were applied; on the other hand, the human colon adenocarcinoma Colo205 cell line and its doxorubicin-resistant counterpart, the Colo320 cell line, were involved. The determined IC50 values using 72 h (Colo205 and Colo320) or 144 h incubation time (MES-SA and MES-SA/Dx5) are shown in Table 4. Doxorubicin was used as a control, and IC50 values obtained for the analogous HQCl-L-Pro compounds are also shown for comparison. […] The lower cytotoxicity of HQNO2-L-Pro is most likely due to its very strong hydrophilic features.
Inhibition of the cell growth (expressed as IC50: inhibitory concentration that reduces by 50% the growth of the cells exposed to the tested compounds) was determined from the sigmoid curve where 100 − ((ODsample − ODmedium control)/(ODcell control − ODmedium control)) × 100 values were plotted against the logarithm of compound concentrations. […]

**Q.** Which results are given for `O=C(O)[C@@H]1CCCN1Cc1cc([N+](=O)[O-])c2cccnc2c1O` [HQNO2-L-Pro, (2S)-1-((8-hydroxy-5-nitroquinolin-7-yl)methyl)pyrrolidin-1-ium-2-carboxylate]?
**A.** activity at 15 min, 10 µM ([1]; A431 cells overexpressing OATP2B1, pH 5.5, probe pyranine, 10 μM, absence of compound = 100%, n = 3, ± SD, read-out: transport activity % OATP2B1): 98.2 ± 5.5%; activity at 15 min, 100 µM ([1]; A431 cells overexpressing OATP2B1, pH 5.5, probe pyranine, 100 μM, absence of compound = 100%, n = 3, ± SD, read-out: transport activity % OATP2B1): 83.3 ± 9.7%; inhibition at 15 min, 100 µM ([1]; probe pyranine, at 100 μM, A431 cells overexpressing OATP2B1, pH 5.5, read-out: inhibition of OATP2B1 function): < 20%; IC50 [2]: 32.4 to 226 µM
